Results taken from PubChem BioAssay AID248 (DTP/NCI, 2004).
“And” between values parts separate entries of the source, which are not always exact repeats. Equal values may be shown once. Toxic doses and inconclusive results are not listed. No stated cut-off is given here; in the data, active means T/C of 150% or more; inactive means T/C below 125%.

Test system: L1210 leukemia ip in BDF1 mice, survival T/C
Test: NCI In Vivo Anticancer Drug Screen. Data for tumor model L1210 Leukemia (intraperitoneal) in B6D2F1 (BDF1) mice
Settings: endpoint: mean survival time, higher = longer survival
Outline: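 Antitumor effect is assessed in tumor-bearing animals. Survival in the compound arm is compared with a vehicle-dosed control arm and expressed as their quotient.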

[1] = dose: 100.0 mg/kg/injection, schedule: Q04DX003 (ip), vehicle: Klucel (hydroxypropylcellulose) (HPC)
[2] = dose: 200.0 mg/kg/injection, schedule: Q04DX003 (ip), vehicle: Klucel (hydroxypropylcellulose) (HPC)
[3] = dose: 400.0 mg/kg/injection, schedule: Q04DX003 (ip), vehicle: Klucel (hydroxypropylcellulose) (HPC)
[4] = dose: 100.0 mg/kg/injection, schedule: Q01DX009 (ip), vehicle: saline with Tween-80

Measured: T/C

CC1(C)N=C(N)N=C(N)N1c1cccc(CCCCc2cccc(S(=O)(=O)F)c2)c1
inactive: dose: 6.25 mg/kg/injection, schedule: Q01DX009 (ip), vehicle: saline sonified 100 % of control | dose: 6.25 mg/kg/injection, schedule: Q04DX003 (ip), vehicle: saline sonified 93 % of control | dose: 12.5 mg/kg/injection, schedule: Q01DX009 (ip), vehicle: saline sonified 88 % of control | dose: 12.5 mg/kg/injection, schedule: Q04DX003 (ip), vehicle: saline sonified 98 % of control | dose: 25.0 mg/kg/injection, schedule: Q01DX009 (ip), vehicle: saline sonified 92 % of control | dose: 25.0 mg/kg/injection, schedule: Q04DX003 (ip), vehicle: saline sonified 93 % of control

CN=C(c1ccc(NC(=O)c2ccc(C(=O)Nc3ccc(C(=NC)N(C)C(C)=O)cc3)c(Cl)c2)cc1)N(C)C(C)=O
inactive: dose: 25.0 mg/kg/injection, schedule: Q01DX015 (ip), vehicle: methylcellulose (MC) 95 % of control | dose: 50.0 mg/kg/injection, schedule: Q01DX015 (ip), vehicle: methylcellulose (MC) 93 % of control | dose: 75.0 mg/kg/injection, schedule: Q01DX015 (ip), vehicle: methylcellulose (MC) 96 % of control | dose: 200.0 mg/kg/injection, schedule: Q01DX015 (ip), vehicle: methylcellulose (MC) 93 % of control

CC1CC=C(C(=O)O)CC1 (centres undefined)
inactive: dose: 50.0 mg/kg/injection, schedule: Q01DX001 (ip), vehicle: other 90 % of control | dose: 100.0 mg/kg/injection, schedule: Q01DX001 (ip), vehicle: other 95 % of control | dose: 200.0 mg/kg/injection, schedule: Q01DX001 (ip), vehicle: other 93 % of control | dose: 400.0 mg/kg/injection, schedule: Q01DX001 (ip), vehicle: other 95 % of control

CCC(C)(CC=C(C)C)c1ccncc1 (centres undefined)
inactive: dose: 100.0 mg/kg/injection, schedule: Q01DX001 (ip), vehicle: saline 98 % of control

Cc1cc(Cl)c(N)[c]([Hg][I])c1F
inactive: dose: 12.0 mg/kg/injection, schedule: Q01DX001 (ip), vehicle: Klucel (hydroxypropylcellulose) (HPC) 90 % of control | dose: 25.0 mg/kg/injection, schedule: Q01DX001 (ip), vehicle: Klucel (hydroxypropylcellulose) (HPC) 86 % of control | dose: 50.0 mg/kg/injection, schedule: Q01DX001 (ip), vehicle: Klucel (hydroxypropylcellulose) (HPC) 92 % of control

CN(C)c1ccc(C(=O)c2ccccc2)cc1
inactive: dose: 50.0 mg/kg/injection, schedule: Q01DX009 (ip), vehicle: Klucel (hydroxypropylcellulose) (HPC) 101 % of control | dose: 100.0 mg/kg/injection, schedule: Q01DX009 (ip), vehicle: Klucel (hydroxypropylcellulose) (HPC) 108 % of control | [1] 100 % of control | dose: 200.0 mg/kg/injection, schedule: Q01DX009 (ip), vehicle: Klucel (hydroxypropylcellulose) (HPC) 95 % of control | [2] 105 % of control | dose: 400.0 mg/kg/injection, schedule: Q01DX009 (ip), vehicle: Klucel (hydroxypropylcellulose) (HPC) 102 % of control | [3] 100 % of control

CN1CC2C3C=CC(C3)C2C1 (centres undefined)
inactive: dose: 75.0 mg/kg/injection, schedule: Q01DX001 (ip), vehicle: other 96 % of control | dose: 150.0 mg/kg/injection, schedule: Q01DX001 (ip), vehicle: other 88 % of control

O=C(O)CC(C(=O)O)/C(=C\c1ccccc1)c1ccccc1 (centres undefined)
inactive: dose: 100.0 mg/kg/injection, schedule: Q04DX002 (ip), vehicle: saline 94 % of control | dose: 200.0 mg/kg/injection, schedule: Q04DX002 (ip), vehicle: saline 113 % of control | dose: 400.0 mg/kg/injection, schedule: Q04DX002 (ip), vehicle: saline 110 % of control

O=C1N(Br)C(=O)C(c2ccc(Cl)cc2)(c2ccc(Cl)cc2)N1Br
inactive: dose: 15.0 mg/kg/injection, schedule: Q01DX015 (ip), vehicle: carboxymethylcellulose (CMC) 89 % of control | dose: 30.0 mg/kg/injection, schedule: Q01DX015 (ip), vehicle: carboxymethylcellulose (CMC) 93 % of control | dose: 60.0 mg/kg/injection, schedule: Q01DX015 (ip), vehicle: carboxymethylcellulose (CMC) 88 % of control | dose: 100.0 mg/kg/injection, schedule: Q01DX001 (ip), vehicle: carboxymethylcellulose (CMC) 95 % of control | dose: 100.0 mg/kg/injection, schedule: Q01DX009 (ip), vehicle: saline sonified 113 % of control | [1] 99 % of control | dose: 120.0 mg/kg/injection, schedule: Q01DX015 (ip), vehicle: carboxymethylcellulose (CMC) 93 % of control | dose: 200.0 mg/kg/injection, schedule: Q01DX001 (ip), vehicle: carboxymethylcellulose (CMC) 90 % of control | dose: 200.0 mg/kg/injection, schedule: Q01DX009 (ip), vehicle: saline sonified 106 % of control | [2] 94 % of control | dose: 240.0 mg/kg/injection, schedule: Q01DX015 (ip), vehicle: carboxymethylcellulose (CMC) 95 % of control | dose: 360.0 mg/kg/injection, schedule: Q01DX015 (ip), vehicle: carboxymethylcellulose (CMC) 98 % of control | dose: 400.0 mg/kg/injection, schedule: Q01DX001 (ip), vehicle: carboxymethylcellulose (CMC) 104 % of control | dose: 400.0 mg/kg/injection, schedule: Q01DX009 (ip), vehicle: saline sonified 99 % of control | [3] 100 % of control

O=C1Nc2ccccc2C1=O
inactive: dose: 50.0 mg/kg/injection, schedule: Q01DX009 (ip), vehicle: saline 92 % of control | dose: 100.0 mg/kg/injection, schedule: Q01DX009 (ip), vehicle: saline 103 % of control | dose: 100.0 mg/kg/injection, schedule: Q04DX003 (ip), vehicle: saline 99 % of control | dose: 200.0 mg/kg/injection, schedule: Q01DX009 (ip), vehicle: saline 103 % of control | dose: 200.0 mg/kg/injection, schedule: Q04DX003 (ip), vehicle: saline 99 % of control | dose: 400.0 mg/kg/injection, schedule: Q01DX009 (ip), vehicle: saline 96 % of control | dose: 400.0 mg/kg/injection, schedule: Q04DX003 (ip), vehicle: saline 99 % of control

CCCCOC(=S)SSC(=S)OCCCC
inactive: dose: 25.0 mg/kg/injection, schedule: Q01DX009 (ip), vehicle: saline with Tween-80 97 % of control | dose: 50.0 mg/kg/injection, schedule: Q01DX009 (ip), vehicle: saline with Tween-80 93 % of control | [4] 103 % of control and 104 % of control

CC(C)C(=O)/C=C/c1ccc(Cl)cc1
inactive: dose: 100.0 mg/kg/injection, schedule: Q04DX002 (ip), vehicle: gum acacia 95 % of control | dose: 200.0 mg/kg/injection, schedule: Q04DX002 (ip), vehicle: gum acacia 92 % of control | dose: 400.0 mg/kg/injection, schedule: Q04DX002 (ip), vehicle: gum acacia 92 % of control

O=C1[O][Hg][c]2c1cccc2[N+](=O)[O-]
inactive: dose: 2.5 mg/kg/injection, schedule: Q01DX009 (ip), vehicle: Klucel (hydroxypropylcellulose) (HPC) 92 % of control | dose: 2.5 mg/kg/injection, schedule: Q04DX003 (ip), vehicle: Klucel (hydroxypropylcellulose) (HPC) 89 % of control | dose: 5.0 mg/kg/injection, schedule: Q01DX009 (ip), vehicle: Klucel (hydroxypropylcellulose) (HPC) 90 % of control | dose: 5.0 mg/kg/injection, schedule: Q04DX003 (ip), vehicle: Klucel (hydroxypropylcellulose) (HPC) 88 % of control | dose: 10.0 mg/kg/injection, schedule: Q01DX009 (ip), vehicle: Klucel (hydroxypropylcellulose) (HPC) 92 % of control | dose: 10.0 mg/kg/injection, schedule: Q04DX003 (ip), vehicle: Klucel (hydroxypropylcellulose) (HPC) 93 % of control and 96 % of control | dose: 20.0 mg/kg/injection, schedule: Q04DX003 (ip), vehicle: Klucel (hydroxypropylcellulose) (HPC) 98 % of control

N=C(N)N/N=C(\C=N\NC(=N)N)c1ccc(Oc2ccc(C(/C=N/NC(=N)N)=N\NC(=N)N)cc2)cc1
inactive: dose: 3.8 mg/kg/injection, schedule: Q01DX Z (ip), vehicle: saline 98 % of control | dose: 7.5 mg/kg/injection, schedule: Q01DX Z (ip), vehicle: saline 114 % of control | dose: 15.0 mg/kg/injection, schedule: Q01DX Z (ip), vehicle: saline 118 % of control

CCCCCCCCCC/C=N/Nc1ccc([N+](=O)[O-])cc1[N+](=O)[O-]
inactive: dose: 50.0 mg/kg/injection, schedule: Q01DX001 (ip), vehicle: saline with Tween-80 93 % of control | dose: 100.0 mg/kg/injection, schedule: Q01DX001 (ip), vehicle: saline with Tween-80 92 % of control | dose: 200.0 mg/kg/injection, schedule: Q01DX001 (ip), vehicle: saline with Tween-80 93 % of control

COc1ccc(/C=N/NC(=O)c2ccc(OC)cc2)cc1
inactive: [1] 101 % of control | [2] 90 % of control | [3] 92 % of control

CCCC(C)OC(=O)Nc1cccc(O)c1 (centres undefined)
inactive: [4] 101 % of control | dose: 200.0 mg/kg/injection, schedule: Q01DX009 (ip), vehicle: saline with Tween-80 101 % of control | dose: 400.0 mg/kg/injection, schedule: Q01DX009 (ip), vehicle: saline with Tween-80 102 % of control

C=CCC(=O)O
inactive: dose: 83.0 mg/kg/injection, schedule: Q01DX Z (ip), vehicle: saline 96 % of control | dose: 125.0 mg/kg/injection, schedule: Q01DX Z (ip), vehicle: saline 90 % of control
